Measured values from PubChem BioAssay AID1963962 (Molecular Pharmacology Branch, DTP, NCI, 2024).

System: 967376-340-R-J2-PDC multicell spheroid viability
Assay: Anticancer human tumor 967376-340-R-J2-PDC patient-derived colon adenocarcinoma cell line growth inhibition [PI3K]
Settings: for IC50: curve of first compound; for viability, T/C: stronger effect = lower value
Method in brief: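 Spheroid viability read-out. Co-cultures contained the tumor line plus HUVEC and human MSCs. Each agent was paired with a PI3K inhibitor (inavolisib, alpelisib, duvelisib, copanlisib) across half-log dilutions starting at clinical Cmax, or at 10 microM when Cmax was unknown.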

[1] = second compound 0.0316 µM, first compound 0.0316 µM
[2] = second compound 0.0316 µM, first compound 0.1 µM
[3] = second compound 0.0316 µM, first compound 0.316 µM
[4] = second compound 0.0316 µM, first compound 1 µM
[5] = second compound 0.0316 µM, first compound 3.16 µM
[6] = second compound 0.0316 µM, first compound 10 µM
[7] = second compound 0.1 µM, first compound 0.0316 µM
[8] = second compound 0.1 µM, first compound 0.1 µM
[9] = second compound 0.1 µM, first compound 0.316 µM
[10] = second compound 0.1 µM, first compound 1 µM
[11] = second compound 0.1 µM, first compound 3.16 µM
[12] = second compound 0.1 µM, first compound 10 µM
[13] = second compound 0.316 µM, first compound 0.0316 µM
[14] = second compound 0.316 µM, first compound 0.1 µM
[15] = second compound 0.316 µM, first compound 0.316 µM
[16] = second compound 0.316 µM, first compound 1 µM
[17] = second compound 0.316 µM, first compound 3.16 µM
[18] = second compound 0.316 µM, first compound 10 µM
[19] = second compound 1 µM, first compound 0.0316 µM
[20] = second compound 1 µM, first compound 0.1 µM
[21] = second compound 1 µM, first compound 0.316 µM
[22] = second compound 1 µM, first compound 1 µM
[23] = second compound 1 µM, first compound 3.16 µM
[24] = second compound 1 µM, first compound 10 µM
[25] = second compound 3.16 µM, first compound 0.0316 µM
[26] = second compound 3.16 µM, first compound 0.1 µM
[27] = second compound 3.16 µM, first compound 0.316 µM
[28] = second compound 3.16 µM, first compound 1 µM
[29] = second compound 3.16 µM, first compound 3.16 µM
[30] = second compound 3.16 µM, first compound 10 µM
[31] = second compound 10 µM, first compound 0.0316 µM
[32] = second compound 10 µM, first compound 0.1 µM
[33] = second compound 10 µM, first compound 0.316 µM
[34] = second compound 10 µM, first compound 1 µM
[35] = second compound 10 µM, first compound 3.16 µM
[36] = second compound 10 µM, first compound 10 µM
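Also: spheroids exposed to agents for 7 days before read-out.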
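For viability, T/C in this document: luminescence used as surrogate of cell viability.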

Q: Which results are given for C#Cc1c(F)ccc2cc(O)cc(-c3ncc4c(N5CC6CCC(C5)N6)nc(OCC56CCCN5CC(F)C6)nc4c3F)c12 (centres undefined) + Cc1nc(NC(=O)N2CCCC2C(N)=O)sc1-c1ccnc(C(C)(C)C(F)(F)F)c1?
A: IC50 (second compound 0.0316 µM): > 10 µM; IC50 (second compound 0.1 µM): > 10 µM; IC50 (second compound 0.316 µM): 9.86 µM; IC50 (second compound 1 µM): 5.16 µM; IC50 (second compound 3.16 µM): 3.53 µM; IC50 (second compound 10 µM): < 0.0316 µM; viability, T/C [1]: 104%; viability, T/C [2]: 85.6%; viability, T/C [3]: 81.8%; viability, T/C [4]: 82.7%; viability, T/C [5]: 80.7%; viability, T/C [6]: 68%; viability, T/C [7]: 103%; viability, T/C [8]: 81.7%; viability, T/C [9]: 82.3%; viability, T/C [10]: 70.4%; viability, T/C [11]: 80.8%; viability, T/C [12]: 69.6%; viability, T/C [13]: 64.3%; viability, T/C [14]: 90%; viability, T/C [15]: 74.5%; viability, T/C [16]: 69.8%; viability, T/C [17]: 78.5%; viability, T/C [18]: 49.8%; viability, T/C [19]: 65.1%; viability, T/C [20]: 68.3%; viability, T/C [21]: 72.5%; viability, T/C [22]: 66.8%; viability, T/C [23]: 60.3%; viability, T/C [24]: 35.5%; viability, T/C [25]: 47.6%; viability, T/C [26]: 75.2%; viability, T/C [27]: 59%; viability, T/C [28]: 59.5%; viability, T/C [29]: 49.3%; viability, T/C [30]: 34.9%; viability, T/C [31]: 47.2%; viability, T/C [32]: 41.7%; viability, T/C [33]: 51.5%; viability, T/C [34]: 37.3%; viability, T/C [35]: 36.1%; viability, T/C [36]: 16.9%

Q: What does the source list for C=CC(=O)N1CCN(c2nc(=O)n(-c3c(C)ccnc3C(C)C)c3nc(-c4c(O)cccc4F)c(F)cc23)C(C)C1 (centres undefined) + Cc1nc(NC(=O)N2CCCC2C(N)=O)sc1-c1ccnc(C(C)(C)C(F)(F)F)c1?
A: IC50 (second compound 0.0316 µM): > 10 µM; IC50 (second compound 0.1 µM): > 10 µM; IC50 (second compound 0.316 µM): > 10 µM; IC50 (second compound 1 µM): > 10 µM; IC50 (second compound 3.16 µM): > 10 µM; IC50 (second compound 10 µM): < 0.0316 µM; viability, T/C [1]: 85.5%; viability, T/C [2]: 85.2%; viability, T/C [3]: 86.6%; viability, T/C [4]: 84.6%; viability, T/C [5]: 91.7%; viability, T/C [6]: 102%; viability, T/C [7]: 91.9%; viability, T/C [8]: 85.8%; viability, T/C [9]: 75.6%; viability, T/C [10]: 84.6%; viability, T/C [11]: 100%; viability, T/C [12]: 74%; viability, T/C [13]: 73.3%; viability, T/C [14]: 74.5%; viability, T/C [15]: 62.5%; viability, T/C [16]: 94%; viability, T/C [17]: 91.3%; viability, T/C [18]: 69.8%; viability, T/C [19]: 65.5%; viability, T/C [20]: 65.7%; viability, T/C [21]: 57.3%; viability, T/C [22]: 66.6%; viability, T/C [23]: 66.1%; viability, T/C [24]: 76.5%; viability, T/C [25]: 61%; viability, T/C [26]: 52.9%; viability, T/C [27]: 64.4%; viability, T/C [28]: 56.8%; viability, T/C [29]: 77.7%; viability, T/C [30]: 53.3%; viability, T/C [31]: 46.9%; viability, T/C [32]: 44.7%; viability, T/C [33]: 44.9%; viability, T/C [34]: 56.3%; viability, T/C [35]: 48.7%; viability, T/C [36]: 42%
